# Test results taken from patent publication US5055485A, “Inactivation of viruses in cell- and protein-containing compositions using aryl diol epoxides” (New York Blood Center, Inc., priority 1988, dated 1991).
# Where two headings read alike, the source gives them in different places.
# Key:
# [1] = system: washed human red blood cells; experiment: Red cell structural and functional integrity; conditions: conditions of Example 2
# [2] = system: VSV; assay type: cell-based, vesicular stomatitis virus
# [3] = system: Haptoglobin; experiment: Plasma protein: haptoglobin; assay type: biochemical; conditions: human plasma, 10 μm, 6 hours, 24° C.
# [4] = system: Vesicular stomatitis virus (VSV); assay type: cell-based
# [5] = system: VSV; experiment: microbe, parasite or virus in culture; assay type: cell-based; conditions: Vesicular stomatitis virus, A549, read-out: virus kill (cell-associated VSV)
# [6] = system: A549 cells
# [7] = system: Fibrinogen; experiment: Plasma protein functional activity: fibrinogen clottability; assay type: biochemical; conditions: human plasma, 10 μm, 6 hours, 24° C.
# [8] = system: Anti-HBsAg; experiment: Plasma protein functional activity: Anti-HBsAg titer; assay type: biochemical; conditions: human plasma, 10 μm, 6 hours, 24° C.
# [9] = system: Factor IX; experiment: Plasma protein functional activity: Factor IX; assay type: biochemical; conditions: human plasma, 10 μm, 6 hours, 24° C.
# [10] = system: VSV; experiment: microbe, parasite or virus in culture; assay type: cell-based, vesicular stomatitis virus; conditions: for log reduction at 10 µM: Vesicular stomatitis virus, 6 h
# [11] = Solubility in aqueous media / water; assay type: physicochemical
# [12] = system: AHF; experiment: Plasma protein functional activity: AHF; assay type: biochemical; conditions: human plasma, 10 μm, 6 hours, 24° C.
# [13] = system: selected plasma proteins; experiment: Functional activity of selected plasma proteins, overall; assay type: biochemical; conditions: human plasma, 10 μm, 6 hours, 24° C.
# [14] = Hydrolysis in aqueous medium; assay type: physicochemical; conditions: iscove's medium 10% fbs; Iscove's medium containing 10% fetal bovine serum
# [15] = system: factor VIII; conditions: background art; cited from earlier work
# [16] = system: proteinaceous components of the plasma; conditions: background art; cited from earlier work
# [17] = system: DNA; conditions: background art; cited from earlier work
# [18] = background art; cited from earlier work
# [19] = system: viruses; conditions: background art; cited from earlier work
compound,measurement,setting,value
"O[C@H]1[C@H]2O[C@H]2c2c(cc3ccc4cccc5ccc2c3c45)[C@@H]1O (relative stereo) [BAPDE, trans-7,8-dihydroxy [anti] 9,10 epoxy-7,8,9,10-tetrahydro benzo[a]pyrene]","2,3 diphosphoglycerate levels",[1],within the normal range
same,ATP levels,[1],within the normal range
same,Red cell structural and functional integrity,[1],not compromised
same,hemoglobin content,[1],within the normal range
same,osmotic fragility,[1],within the normal range
same,VSV inactivation in the presence of red cells (in words),[2],reduced in the presence of red cells
same,virus titer reduction,[2],at least 3 logs
same,Haptoglobin Recovery (%),[3],97%
same,Haptoglobin following treatment with BAPDE,[3]; no treatment 175,170 mg/dL
same,virus inactivated,[4],> 5 logs
same,log reduction at 3 µM,[5],> 5.5
same,toxicity to A549 cells,[6],"Neither BAPDE nor the solvent in which it was dissolved (e.g., tetrahydroturan) were toxic to A549 cells"
same,Fibrinogen clottability Recovery (%),[7],100%
same,Fibrinogen clottability following treatment with BAPDE,[7]; no treatment clottable,clottable
same,Anti-HBsAg Recovery (%),[8],110%
same,Anti-HBsAg following treatment with BAPDE,[8]; no treatment 0.50,0.55 titer
same,Factor IX Recovery (%),[9],100%
same,Factor IX following treatment with BAPDE,[9]; no treatment 0.9,0.9 units/ml
same,VSV Infectivity following treatment with BAPDE,[10],< -0.5
same,log reduction at 10 µM,[10]; read-out: virus inactivation,> 4.5
same,log reduction at 10 µM,[10]; read-out: VSV Infectivity change: log10 Kill,> 4.6
same,solubility,[11],1 to 10 µM
same,AHF Recovery (%),[12],79%
same,AHF following treatment with BAPDE,[12]; no treatment 0.70,0.55 units/ml
same,loss of protein functional activity (in words),[13],without significant loss of protein functional activity
same,half-life,[14],~30 min
"O=C1CCO1 [Beta-propiolactone, beta-propiolactone]",loss of factor VIII content of plasma,[15],more than half of the factor VIII content of plasma is lost
same,denaturation of plasma proteins,[16],substantially denaturate valuable plasma proteins
CN(C)c1ccc2cc3ccc(N(C)C)cc3nc2c1 [acridine orange],binding to DNA,[17],bind extremely well to DNA
same,water solubility (in words),[18],water soluble
C=O [formaldehyde],denaturation of plasma proteins,[16],denatured the valuable proteinaceous components of the plasma
O=CCCCC=O [glutaraldehyde],denaturation of plasma proteins,[16],denatured the valuable proteinaceous components of the plasma
same,viral inactivation and effect on cells (in words),[19],"inactivates viral infectivity, but fixes cells"
Nc1ccc2cc3ccc(N)cc3nc2c1 [proflavin],binding to DNA,[17],bind extremely well to DNA
same,water solubility (in words),[18],water soluble
OCl [sodium hypochlorite],denaturation of plasma proteins,[16],denatured the valuable proteinaceous components of the plasma
